Assay results: patent publication US11679111B2, “Fatty acid synthase inhibitors” (priority 2016, dated 2023)
Like-named read-outs stand apart in the source and are kept apart here.

Experiments:
[1] = Method: To test if HS-106 is toxic to mice, two animal studies were initiated. In an acute toxicity study, mice received 80, 20, or 5 mg/kg HS-106 IP on day 1 and 3, and blood was collected on day 4.
In an acute toxicity study, FVB/J mice received 10, 40, or 160 pmol/kg HS-106 via intraperitoneal injection (IP) on days 1 and 3, and blood was collected on day 4. […] To test for the long term effects of HS-106, mice received biweekly IP injections of 10, 20, or 30 pmol/kg HS-106 for eight weeks. […] Next, we carried out pharmacokinetic (PK) studies to determine the uptake and bio-distribution of HS-106 in MMTV-Neu mice by LC-MS (FIG. 17).
Female FVB/J mice aged to 10-12 weeks (Jackson Labs, Maine) were intraperitonealy injected with HS-106 at the described doses twice weekly. Mice were monitored for signs of toxicity by standard Mouse Phase 1 Unit (MP1U; https://www.med.unc.edu/mousephase1) protocols and approved by UNC—CH IACUC. Prior to end of the study 150 μl of whole blood was drawn via submandibular bleed and used to determine hematology values, liver, and kidney functions. To determine the long term effects of HS-106 on mice weight, female FVB/J mice aged 12-16 weeks were treated with the indicated concentrations of HS-106 twice weekly by intraperitoneal injection for 60 days. Mice body mass was assessed weekly and were observed every day for signs of toxicity such as labored breathing and hunched posture.
Female FVB/J mice aged to 10-12 weeks (Jackson Labs, Maine) were intraperitonealy (IP) injected twice weekly with HS-106 at the described doses. Mice were monitored for signs of toxicity by standard Mouse Phase 1 Unit (M1P1U; https://www.med.unc.edu/mousephase1) protocols and approved by UNC—CH IACUC. Prior to end of the study 150 μl of whole blood was drawn via submandibular bleed and used to determine hematology values, liver, and kidney functions by HemaTrue Hematology Analyzer (HESKA, Loveland, Colo., USA) and VITROS® 350 Chemistry System (J&J, New Brunswick, N.J.) according to manufacturer protocols. To determine the long term effects of HS-106 on mice weight, female FVB/J mice aged 12-16 weeks were treated with the indicated concentrations of HS-106 twice weekly by IP injection for 60 days. Mice body mass was assessed weekly, and mice were observed daily for signs of toxicity (e.g. labored breathing and hunched posture).

[2] = tested on: FASN activity in HepG2 cells; assay: [3H] glucose and acetate incorporation into lipids in HepG2 cells; assay type: cell-based; conditions: for EC50 / IC50: Homo sapiens
Method: To specifically identify inhibitors of FASN targeting its nucleotide binding pockets Cibacron blue Sepharose was utilized. This medium has been used previously to purify NAD and NADP binding proteins from crude tissues extracts (Miyaguchi et al., 2011; Muratsubaki et al., 1994). FASN enriched extract from lactating pig mammary gland was bound to the resin and labeled with cysteine reactive fluorescein. […] Next, the molecules were tested for their ability to inhibit FASN activity in a HepG2 cell based assay that measured the incorporation of ^3H glucose into lipids (FIG. 1B and FIG. 9).
Incorporation of radiolabeled glucose or acetate in total lipids was measured according to published methods (Haystead and Hardie, 1986). HepG2 cells (80% confluent in 12 wells plates) were starved overnight in MEM Alpha, the medium was then changed with DMEM medium containing 0.1 g/L glucose 10% FBS and 5 μM insulin and 1 μCi 3-[^3H] D-glucose or 1 μCi [^3H]-acetate in addition to different concentrations of each compound. After incubation for 1 hour at 37° C., 5% CO2, the cells were washed with ice cold PBS and detached by treating with 100 μl trypsin for 10 min then 1 ml of ice cold PBS was added. The cells suspension was then sonicated for 3 times in 30 seconds intervals and kept on ice. From each well 1 ml of cell lysate was added to a 4 ml scintillation vial and 2 ml of MicroScint-E was added. The vials were mixed thoroughly then centrifuged for 30 min at 3000 rpm and the ^3H radioactivity was measured by liquid scintillation counting.

HepG2 cells = assay: HepG2 cell viability (Resazurin); assay type: cell-based
Method: HepG2 cells were seeded in 96 well plates and after reaching 80% confluency, the cells were treated with different concentrations of HS-106 for 4 hours. At the end of the treatment time, 10 μl of 700 μM Resazurin (prepared with PBS) were added to each well. After 3 hours, the Resorufin fluorescence was measured at Ex/Em: 540/590 nm.

With `Cc1sc2ncnc(NC3CCN(Cc4ccccc4)C3)c2c1C` (racemic) [HS-106, N-(1-benzylpyrrolidin-3-yI)-5,6-dimethylthieno[2,3-d]pyrimidin-4-amine] the acute toxicity ([1]; 160 pmol/kg IP days 1 and 3) was “toxic”, the acute toxicity ([1]; 80 mg/kg IP day 1 and 3) was “acutely toxic” and the “acute toxicity, blood parameters” value ([1]; 5 and 20 mg/kg IP day 1 and 3, blood day 4) was “did not affect white blood cell count, hemoglobin levels, kidney, or liver function”. The “acute toxicity, blood parameters” value ([1]; 10 and 40 pmol/kg IP days 1 and 3, blood day 4) was “well tolerated with no adverse effects on white blood cell counts, hemoglobin levels, kidney, or liver functions”, the weight change ([1]; BIW IP injection, assessed weekly) was “dose not induce weight change” and the “inhibition of tritiated acetate incorporation into lipids” value ([2]; FIG. 2D, cell line not stated) was “inhibit the incorporation of tritiated acetate into lipids”. For the same compound, the “rank among the 13 molecules tested, 3H glucose incorporation into lipids” value ([2]; HepG2 cells) was “most potent inhibitor”, the EC50 ([2]; HepG2, read-out: EC50, blockade of acetate incorporation into total lipids) was 147 nM and the EC50 ([2]; HepG2, read-out: EC50, blockade of glucose incorporation into total lipids) was 213 nM. For the same compound, the IC50 ([2]; HepG2, read-out: IC50, incorporation of tritiated acetate into lipids) was 147 nM, the IC50 ([2]; HepG2, read-out: IC50, incorporation of tritiated glucose into lipids) was 213 nM and the HepG2 cell viability (HepG2 cells) was “without affecting the cell viability”.
